Results taken from patent US20240166647A1, “Cereblon Ligands” (THE REGENTS OF THE UNIVERSITY OF MICHIGAN, priority 2021, published 2024).
pIC50: −log10 of the molar value.

Biological target: T1, GST-tagged wild-type human CRBN protein (Homo sapiens, UniProt Q96SW2)
T1 construct: purchased Cisbio 64BDCRBNPEG
Experiment: Cereblon Binding Assay (Cisbio Cereblon Binding Kit, TR-FRET)
Details: TR-FRET competition with XL665-labelled Thalidomide, room temperature about 3 hours
Procedure: In some embodiments, the biological assay may involve evaluation of CRBN binding activity, e.g., in Cereblon Binding Kit (Cisbio, #64BDCRBNPEG).
In some embodiments, the cell line is maintained and cultured, e.g., at room temperature for about 3 hours.
In some embodiments, the Fluorescence Resonance Energy Transfer (TR-FRET) measurements of the cell line is recorded and evaluated.
Procedure for Cereblon Binding Assay. The binding to cereblon (CRBN) was determined using the Cereblon Binding Kit (Cisbio, #64BDCRBNPEG) following the manufacturer's instruction. Briefly, serially diluted compounds were incubated with GST-tagged wild-type human CRBN protein, XL665-labelled Thalidomide and Europium Cryptate labelled GST antibody at room temperature for about 3 hours. […] The readings were normalized to the control (0.5%) and the ICso was calculated by nonlinear regression (four parameters sigmoid fitted with variable slope) analysis using the GraphPad Prism 8 software.

T1 sequence (Q96SW2 whole entry): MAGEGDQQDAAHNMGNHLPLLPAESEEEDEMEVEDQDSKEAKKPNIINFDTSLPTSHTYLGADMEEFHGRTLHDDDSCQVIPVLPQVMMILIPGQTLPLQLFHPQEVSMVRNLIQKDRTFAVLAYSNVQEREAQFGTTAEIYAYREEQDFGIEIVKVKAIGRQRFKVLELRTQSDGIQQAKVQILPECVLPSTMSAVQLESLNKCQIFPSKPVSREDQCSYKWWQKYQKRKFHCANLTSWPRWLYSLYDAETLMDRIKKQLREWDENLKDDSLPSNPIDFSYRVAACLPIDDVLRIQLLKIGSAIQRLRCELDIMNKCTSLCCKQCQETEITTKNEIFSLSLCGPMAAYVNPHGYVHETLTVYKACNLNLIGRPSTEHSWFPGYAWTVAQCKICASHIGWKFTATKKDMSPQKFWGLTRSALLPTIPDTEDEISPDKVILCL

Row | Compound | pIC50
1 | O=C1CCC(N2C(=O)c3cc4c(cc3C2=O)CC2(CNC2)C4)C(=O)N1 (stereo not shown) [Example 217] | < 5.00
2 | O=C1CCC(N2Cc3cc4c(cc3C2=O)CC2(CNC2)C4)C(=O)N1 (stereo not shown) [Example 218] | 5.00 to 6.00
3 | O=C1CCC(N2C(=O)c3ccc4c(c3C2=O)CNC4)C(=O)N1 (stereo not shown) [Example 219] | 5.00 to 6.00
4 | COc1c2c(cc3c1CN(C1CCC(=O)NC1=O)C3=O)CN(Cc1ccccc1)C2 (stereo not shown) [Example 220] | > 6.30
5 | O=C1CCC(N2C(=O)c3cc4c(cc3C2=O)CN(Cc2ccc(F)cc2)CC4)C(=O)N1 (stereo not shown) [Example 221] | 6.00 to 6.30
6 | O=C1CCC(N2Cc3cc4c(cc3C2=O)CN(Cc2ccc(F)cc2)C4)C(=O)N1 (stereo not shown) [Example 222] | > 6.30
7 | O=C1CCC(N2C(=O)c3cc4c(cc3C2=O)CCN(Cc2ccc(F)cc2)CC4)C(=O)N1 (stereo not shown) [Example 223] | 5.00 to 6.00
8 | O=C1CCC(N2C(=O)c3cc4c(cc3C2=O)CN(Cc2cccc3c2OCCO3)C4)C(=O)N1 (stereo not shown) [Example 224] | > 6.30
9 | O=C1CCC(N2Cc3cc4c(cc3C2=O)CN(C(=O)c2cccc3c2CCC3)C4)C(=O)N1 (stereo not shown) [Example 225] | > 6.30
10 | O=C1CCC(N2Cc3cc4c(cc3C2=O)CN(C(=O)c2cccc3c2OCO3)C4)C(=O)N1 (stereo not shown) [Example 226] | > 6.30
11 | O=C1CCC(N2C(=O)c3cc4c(cc3C2=O)CN(Cc2ccc(C(F)(F)F)cc2)CCC4)C(=O)N1 (stereo not shown) [Example 227] | 6.00 to 6.30
12 | O=C1CCC(N2C(=O)c3cc4c(cc3C2=O)CC(CN2CCC(Cc3ccc(F)cc3)CC2)C4)C(=O)N1 (stereo not shown) [Example 228] | > 6.30
13 | O=C1CCC(N2C(=O)c3cc4c(cc3C2=O)CC(CN2CC3(CN(Cc5ccc(F)cc5)C3)C2)C4)C(=O)N1 (stereo not shown) [Example 229] | 6.00 to 6.30
14 | O=C1CCC(N2Cc3cc4c(cc3C2=O)CN(C2CN(Cc3ccc(F)c(F)c3)C2)C4=O)C(=O)N1 (stereo not shown) [Example 230] | 6.00 to 6.30
15 | O=C1CCC(N2Cc3cc4c(cc3C2=O)CN(CC2CN(Cc3ccc(F)c(F)c3)C2)C4=O)C(=O)N1 (stereo not shown) [Example 231] | 6.00 to 6.30
16 | CCN1CC(N2Cc3cc4c(cc3C2=O)CN(C2CCC(=O)NC2=O)C4=O)C1 (stereo not shown) [Example 232] | 6.00 to 6.30
17 | CC(=O)N1CC(N2Cc3cc4c(cc3C2=O)CN(C2CCC(=O)NC2=O)C4=O)C1 (stereo not shown) [Example 233] | 5.00 to 6.00
18 | COc1c2c(cc3c1C(=O)N(C1CCC(=O)NC1=O)C3=O)CN(CC1CN(Cc3ccc(F)cc3Cl)C1)C2 (stereo not shown) [Example 234] | 6.00 to 6.30
19 | O=C1CCC(N2Cc3cc4c(cc3C2=O)CC2(C4)CN(Cc3ccc(F)cc3)C2)C(=O)N1 (stereo not shown) [Example 235] | 6.00 to 6.30
20 | O=C(O)CN1Cc2cc3c(cc2C1)C(=O)N(C1CCC(=O)NC1=O)C3=O (stereo not shown) [Example 236] | > 6.30

Row | Compound | pIC50
21 | O=C(O)CN1Cc2cc3c(cc2C1)C(=O)N(C1CCC(=O)NC1=O)C3 (stereo not shown) [Example 237] | > 6.30
22 | O=C(O)CN1CCc2cc3c(cc2C1)C(=O)N(C1CCC(=O)NC1=O)C3=O (stereo not shown) [Example 238] | 5.00 to 6.00
23 | O=C(O)CCN1Cc2cc3c(cc2C1)C(=O)N(C1CCC(=O)NC1=O)C3=O (stereo not shown) [Example 239] | > 6.30
24 | O=C(O)CCCN1Cc2cc3c(cc2C1)C(=O)N(C1CCC(=O)NC1=O)C3=O (stereo not shown) [Example 240] | > 6.30
25 | O=C(O)CCN1CCc2cc3c(cc2C1)C(=O)N(C1CCC(=O)NC1=O)C3=O (stereo not shown) [Example 241] | 6.00 to 6.30
26 | O=C(O)CCCN1CCc2cc3c(cc2C1)C(=O)N(C1CCC(=O)NC1=O)C3=O (stereo not shown) [Example 242] | 5.00 to 6.00
27 | O=C(O)CN1CCc2cc3c(cc2CC1)C(=O)N(C1CCC(=O)NC1=O)C3=O (stereo not shown) [Example 243] | 6.00 to 6.30
28 | CNC1CCC(N2Cc3cc4c(cc3C2)C(=O)N(C2CCC(=O)NC2=O)C4=O)CC1 (stereo not shown) [Example 244] | > 6.30
29 | O=C1CCC(N2C(=O)c3cc4c(cc3C2=O)CN(Cc2ccc(F)nc2)C4)C(=O)N1 (stereo not shown) [Example 245] | > 6.30
30 | O=C1CCC(N2C(=O)c3cc4c(cc3C2=O)CN(Cc2cnc(Cl)nc2)C4)C(=O)N1 (stereo not shown) [Example 246] | 5.00 to 6.00
31 | O=C1CCC(N2Cc3cc4c(cc3C2)C(=O)N(C2CCC(=O)NC2=O)C4=O)CC1 (stereo not shown) [Example 247] | 6.00 to 6.30
32 | NC1CCC(N2Cc3cc4c(cc3C2)C(=O)N(C2CCC(=O)NC2=O)C4=O)CC1 (stereo not shown) [Example 248] | > 6.30
33 | O=C1CCC(N2Cc3cc4c(cc3C2)C(=O)N(C2CCC(=O)NC2=O)C4)CC1 (stereo not shown) [Example 249] | 6.00 to 6.30
34 | O=C1CCC(N2C(=O)c3cc4c(cc3C2=O)CN(C(=O)C2CCC3(CCNCC3)CC2)C4)C(=O)N1 (stereo not shown) [Example 250] | > 6.30
35 | O=C1CCC(N2C(=O)c3cc4c(cc3C2=O)CN(C2CCC(C(=O)O)CC2)C4)C(=O)N1 (stereo not shown) [Example 251] | 6.00 to 6.30
36 | O=C1CCC(C(=O)N2Cc3cc4c(cc3C2)C(=O)N(C2CCC(=O)NC2=O)C4=O)CC1 (stereo not shown) [Example 252] | > 6.30
37 | O=C1CCC(N2C(=O)c3cc4c(cc3C2=O)CN(C(=O)C2CCNCC2)C4)C(=O)N1 (stereo not shown) [Example 253] | > 6.30
38 | O=C1CCC(N2Cc3cc4c(cc3C2=O)CN(C(=O)C2CCNCC2)C4)C(=O)N1 (stereo not shown) [Example 254] | > 6.30
39 | O=C1CCC(N2C(=O)c3ccc4c(c3C2=O)CNCC4)C(=O)N1 (stereo not shown) [Example 255] | 5.00 to 6.00
40 | O=C1CCC(N2Cc3cc4c(cc3C2=O)CN(C2CCNCC2)C4=O)C(=O)N1 (stereo not shown) [Example 256] | > 6.30

Row | Compound | pIC50
41 | O=C1CCC(N2C(=O)c3cc4c(cc3C2=O)CCNCC4)C(=O)N1 (stereo not shown) [Example 257] | 5.00 to 6.00
42 | O=C1CCC(N2C(=O)c3cc4c(cc3C2=O)CNCC4)C(=O)N1 (stereo not shown) [Example 258] | 5.00 to 6.00
43 | O=C1CCC(N2C(=O)c3cc4c(cc3C2=O)CN([C@H]2C[C@H](C(=O)O)C2)C4)C(=O)N1 (stereo partly shown) [Example 259] | 6.00 to 6.30
44 | O=C1CCC(N2C(=O)c3cc4c(cc3C2=O)CN(C2CNC2)C4)C(=O)N1 (stereo not shown) [Example 260] | > 6.30
45 | O=C1CCC(N2C(=O)c3cc4c(cc3C2=O)CN(C2CC3(CCNCC3)C2)C4)C(=O)N1 (stereo not shown) [Example 261] | 5.00 to 6.00
46 | O=C1CCC(N2C(=O)c3cc4c(cc3C2=O)CN(C2CCCC23CCNCC3)C4)C(=O)N1 (stereo not shown) [Example 262] | 5.00 to 6.00
47 | O=C1CCC(N2Cc3cc4c(cc3C2=O)CN(CC2CCNCC2)C4)C(=O)N1 (stereo not shown) [Example 263] | 6.00 to 6.30
48 | O=C1CCC(N2C(=O)c3cc4c(cc3C2=O)CN(C2CCNC2)C4)C(=O)N1 (stereo not shown) [Example 264] | > 6.30
49 | O=C1CCC(N2C(=O)c3cc4c(cc3C2=O)CN(C2CCNCC2)C4)C(=O)N1 (stereo not shown) [Example 265] | 6.00 to 6.30
50 | O=C1CCC(N2C(=O)c3cc4c(cc3C2=O)CN(C2CCC3(CCNCC3)CC2)C4)C(=O)N1 (stereo not shown) [Example 266] | > 6.30
51 | O=C1CCC(N2Cc3cc4c(cc3C2=O)CN(C2CCNCC2)C4)C(=O)N1 (stereo not shown) [Example 267] | 5.00 to 6.00
52 | COC1(CN2Cc3cc4c(cc3C2)C(=O)N(C2CCC(=O)NC2=O)C4=O)CCN(C(=O)OC(C)(C)C)CC1 (stereo not shown) [Example 268] | 6.00 to 6.30
53 | CC1(CN2Cc3cc4c(cc3C2)C(=O)N(C2CCC(=O)NC2=O)C4=O)CCN(C(=O)OC(C)(C)C)CC1 (stereo not shown) [Example 269] | > 6.30
54 | CC(C)(C)OC(=O)N1CCC(F)(CN2Cc3cc4c(cc3C2)C(=O)N(C2CCC(=O)NC2=O)C4=O)CC1 (stereo not shown) [Example 270] | 6.00 to 6.30
55 | O=C1CCC(N2C(=O)c3cc4c(cc3C2=O)CN(CC2CN(c3ccc(C(=O)O)cc3)C2)C4)C(=O)N1 (stereo not shown) [Example 271] | > 6.30
56 | O=C1CCC(N2C(=O)c3cc4c(cc3C2=O)CN(CC2CCN(c3ccc(C(=O)O)cc3)CC2)C4)C(=O)N1 (stereo not shown) [Example 272] | > 6.30
57 | O=C1CCC(N2Cc3cc4c(cc3C2=O)CNC4)C(=O)N1 (stereo not shown) [Example 274] | 5.00 to 6.00
58 | COc1c2c(cc3c1CN(C1CCC(=O)NC1=O)C3=O)CNC2 (stereo not shown) [Example 275] | 6.00 to 6.30
